From US20110306606A1, “NOVEL 2,6-SUBSTITUTED-3-NITROPYRIDINE DERIVATIVE, METHOD FOR PREPARING SAME, AND PHARMACEUTICAL COMPOSITION INCLUDING SAME” (priority 2008, published 2011)
Where two headings read alike, the source gives them in different places.

Legend:
[1] = system: Osteoblasts (Calvarial cells); details: ICR, mouse, 72 h, 1 μM
[2] = system: Osteoblasts (Calvarial cells); assay: Alkaline phosphatase (ALP) activity in osteoblasts (Calvarial cells); type: cell-based, mice; details: Mus musculus, 72 h; 1 μM compound, 3 days, Calvarial cell; read-out: ALP activity (1 μM, % of Control) Calvarial cell
Description: Differentiation and activity of osteoblasts were indirectly evaluated by measuring an ALP activity having a close relationship with osteogenesis.
Osteoblasts (Calvarial cells) prepared in Experimental Example 1 and MC3T3-E1 cells (available from RIKEN Cell Bank, Japan) were collected in α-MEM supplemented with 10% FBS, followed by cell counting. The cells were dispensed into 24-well cultureware at a density of 2×10^4 cells/well. After culturing of the cells for 24 hours, the culture media were discarded and replaced with fresh media in which test compounds were diluted to a concentration of 1 μM (1 mL/well). In addition, the vehicle control group containing 0.1% DMSO was also treated. […] When the experiment was terminated, the supernatant was removed and the cells were washed three times with cold phosphate buffer at 4°. 0.2% Triton X-100 was added to the washed cells which were then subjected to three cycles of freezing at −70° and thawing at room temperature for the complete lysis of cells. The cell extracts were pooled and centrifuged to collect the cell supernatant which was used for the measurement of ALP activity and proteins. The protein concentration was measured using a BCA assay kit (manufactured by Sigma-Aldrich). For the measurement of ALP activity, p-nitrophenylphosphate was added to the cell supernatant which was then incubated at 37° for 30 minutes, and the reaction was terminated with the addition of 50 μL of 0.2N sodium hydroxide. The standard curve was plotted at the absorbance of 405 nm using p-nitrophenol as a standard material and then the absorbance of test materials thus reacted was measured to determine the production amount of p-nitrophenol.
The ALP activity was calculated by dividing the amount of p-nitrophenol produced from each test material by the protein amount and the reaction time. Therefore, the unit of ALP activity was given in terms of p-nitrophenol/μg protein/min. The results are given in Tables 28-1 and 28-2 where the ALP activity unit of each test material was given in terms of % change through the comparison between the individual test materials and the vehicle control group.

[3] = system: formation of osteoclasts in co-culture of bone marrow cells and osteoblasts; assay: Osteoclastogenesis inhibition via co-culture system (TRAP staining); type: cell-based, mice; details: 1 μM compound, 7 days co-culture, TRAP-positive multinucleated osteoclasts vs vehicle control
Description: Osteoclastogenesis inhibitory effects of the compounds of the present invention were evaluated via a co-culture system (Reference: Endocrinology 137(1996), 2187 to 2190, E. Jimi et al.). A specific experimental method is as follows.
1) Preparation of Bone Marrow Cells and Osteoblasts
Femora and tibia were aseptically dissected from 6 to 8-week-old male ddY mice to harvest bone marrow cells by a conventional method using a syringe. In brief, tissues were removed from the dissected bone, the bone ends were cut off with scissors, and the bone marrow was isolated by pushing a medium-containing syringe (23G) against the one end of the cut bone. The isolated bone marrow was subjected to repeated piston movement of a syringe such that single cells were obtained (Reference: Endocrinology 123(1988), 2600 to 2602, Takahashi et al.). After removal of red blood cells within the bone marrow, the bone marrow cells recovered by centrifugation were placed in an α-MEM supplemented with 10% fetal bovine serum (FBS), followed by counting of nucleated cells and then were immediately used for a co-culture system.
2) Osteoclastogenesis Inhibition Experiment Via Co-Culture System
As the medium used for a co-culture system, a differentiation medium with the addition of differentiation factors 1α,25-dihydroxyvitamin D3 (10^−8M) and dexamethasone (10^−8M) to a-MEM supplemented with 10% FBS was used for the induction of osteoclastogenesis. First, the compounds dissolved in dimethyl sulfoxide (DMSO) at a concentration of 1 mM were diluted to 2 μM using the above-mentioned differentiation medium. As a vehicle control group, 0.2% (v/v) DMSO was added to the medium. 100 μL/well of each medium was added to 96-well plates. In addition, the above prepared bone marrow cells and osteoblasts were plated onto 96-well plates at a density of 1×10^5 cells/50 μL/well and 3×10^3 cells/50 μL/well, respectively. The total volume/well was 200 μL and the final compound concentration was 1 μM. The control group was 0.1% DMSO. The cells were cultured with exchange of the culture media with fresh media containing differentiation factors and test materials at an interval of 2 to 3 days.
7 days after culturing of cells, the formation of multinucleated osteoclasts was confirmed by microscopic examination, the medium was removed from the wells and then the cells were fixed in a 10% phosphate-buffered formalin solution. The degree of formation of mature osteoclasts was measured taking advantage of the characteristics of osteoclasts showing a positive reaction to a tartrate-resistant acid phosphatase (TRAP) staining solution. The TRAP staining solution was prepared in a manner such that naphthol AS-MS phosphate as a substrate and a coloring agent (Fast Red Violet LB salt) were dissolved in N,N-dimethylformamide, and a 0.1N NaHCO3 buffer solution containing 50 mM of tartaric acid was added thereto. Among the TRAP-positive cells under a light microscope, multinucleated osteoclasts having 6 to 7 nuclei were regarded as mature osteoclasts.
The degree of inhibition of osteoclastogenesis was calculated according to the following equation 1. The results are summarized in Table 27 below (Experiments were carried out for 4 wells/experimental group (n=4), and the results are given in terms of mean±standard deviation)
Inhibition of osteoclastogenesis(%)=(1−numbers of osteoclasts observed in experimental group/numbers of osteoclasts observed in vehicle control group)×100(%) [Equation 1]

[4] = system: Osteoblasts (Calvarial cells); assay: Cytotoxicity test (MTT); details: 1 μM compound, 72 hours, in comparison with vehicle control

Structure (SMILES): Nc1cccc(Nc2nc(NCc3cccnc3)ccc2[N+](=O)[O-])c1 [Compound 80, 2-[3-(amino)phenylamino]-6-[(3-pyridyl)methylamino]-3-nitropyridine]
- Cell viability (%) Calvarial cell [1]: 102%
- activity at 1 µM [2]: 116%

Structure (SMILES): Nc1cccc(Nc2nc(NCc3ccncc3)ccc2[N+](=O)[O-])c1 [Compound 81, 2-[3-(amino)phenylamino]-6-[(4-pyridyl)methylamino]-3-nitropyridine]
- Cell viability (%) Calvarial cell [1]: 100%
- activity at 1 µM [2]: 123%

Structure (SMILES): CNc1ccc([N+](=O)[O-])c(Nc2ccc(-n3ccnc3)cc2)n1 [Compound 86, 2-[4-(imidazol-1-yl)phenylamino]-6-(methylamino)-3-nitropyridine]
- Cell viability (%) Calvarial cell [1]: 111%
- activity at 1 µM [2]: 144%

Structure (SMILES): CC(C)Nc1ccc([N+](=O)[O-])c(Nc2ccc(-n3ccnc3)cc2)n1 [Compound 87, 2-[4-(imidazol-1-yl)phenylamino]-6-(isopropylamino)-3-nitropyridine]
- Cell viability (%) Calvarial cell [1]: 101%
- activity at 1 µM [2]: 116%

Structure (SMILES): CN(CC1OCCO1)c1ccc([N+](=O)[O-])c(Nc2ccc(-n3ccnc3)cc2)n1 [Compound 89]
- Osteoclastogenesis inhibition (%) 1 μM [3]: 73%
- Cell viability (%) Calvarial cell [4]: 89%

Structure (SMILES): O=[N+]([O-])c1ccc(N2CCC(O)CC2)nc1Nc1ccc(-n2ccnc2)cc1 [Compound 90, 2-[4-(imidazol-1-yl)phenylamino]-6-(4-hydroxypiperidino)-3-nitropyridine]
- Cell viability (%) Calvarial cell [1]: 106%
- activity at 1 µM [2]: 161%

Structure (SMILES): CC(=O)c1cccc(Nc2nc(N3CCC(O)CC3)ccc2[N+](=O)[O-])c1 [Compound 99, 2-(3-acetylphenylamino)-6-(4-hydroxypiperidino)-3-nitropyridine]
- Cell viability (%) Calvarial cell [1]: 104%
- activity at 1 µM [2]: 189%

Structure (SMILES): CC(=O)c1cccc(Nc2nc(NC(C)(C)C)ccc2[N+](=O)[O-])c1 [Compound 104, 2-(3-acetylphenylamino)-6-(t-butylamino)-3-nitropyridine]
- Cell viability (%) Calvarial cell [1]: 97%
- activity at 1 µM [2]: 112%

Structure (SMILES): CC(=O)c1cccc(Nc2nc(N3CCN(C)CC3)ccc2[N+](=O)[O-])c1 [Compound 105, 2-(3-acetylphenylamino)-6-(4-methylpiperazin-1-yl)-3-nitropyridine]
- Cell viability (%) Calvarial cell [1]: 90%
- activity at 1 µM [2]: 121%

Structure (SMILES): CC(=O)c1cccc(Nc2nc(N3CCOCC3)ccc2[N+](=O)[O-])c1 [Compound 107, 2-(3-acetylphenylamino)-6-morpholino-3-nitropyridine]
- Cell viability (%) Calvarial cell [1]: 97%
- activity at 1 µM [2]: 121%

Structure (SMILES): CC(C)CNc1ccc([N+](=O)[O-])c(Nc2ccc(N3CCOCC3)cc2)n1 [Compound 110, 2-(4-morpholinophenylamino)-6-(isobutylamino)-3-nitropyridine]
- Cell viability (%) Calvarial cell [1]: 112%
- activity at 1 µM [2]: 143%

Structure (SMILES): Cc1nc(-c2ccc(Nc3nc(NC(C)C)ccc3[N+](=O)[O-])cc2)cs1 [Compound 133, 2-[4-(2-methylthiazol-4-yl)phenylamino]-6-(isopropylamino)-3-nitropyridine]
- Cell viability (%) Calvarial cell [1]: 102%
- activity at 1 µM [2]: 122%

Structure (SMILES): Cc1nc(-c2ccc(Nc3nc(-n4ccnc4C(C)C)ccc3[N+](=O)[O-])cc2)cs1 [Compound 137, 2-[4-(2-methylthiazol-4-yl)phenylamino]-6-[(2-isopropyl)imidazol-1-yl]-3-nitropyridine]
- Cell viability (%) Calvarial cell [1]: 92%
- activity at 1 µM [2]: 122%

Structure (SMILES): Cc1nc(-c2ccc(Nc3nc(NC(C)(C)C)ccc3[N+](=O)[O-])cc2)cs1 [Compound 140, 2-[4-(2-methylthiazol-4-yl)phenylamino]-6-(t-butylamino)-3-nitropyridine]
- Cell viability (%) Calvarial cell [1]: 102%
- activity at 1 µM [2]: 118%

Structure (SMILES): NC1CCN(c2ccc([N+](=O)[O-])c(Nc3ccc(-c4csc(C5CCCCC5)n4)cc3)n2)CC1 [Compound 161, 2-[4-(2-cyclohexylthiazol-4-yl)phenylamino]-6-(4-aminopiperidino)-3-nitropyridine]
- Cell viability (%) Calvarial cell [1]: 98%
- activity at 1 µM [2]: 121%

Structure (SMILES): CCN(CC)c1ccc(Nc2nc(NCC(C)C)ccc2[N+](=O)[O-])cc1F [Compound 177, 2-[(3-fluoro-4-diethylamino)phenylamino]-6-(isobutylamino)-3-nitropyridine]
- Osteoclastogenesis inhibition (%) 1 μM [3]: 61%
- Cell viability (%) Calvarial cell [4]: 107%

Structure (SMILES): O=[N+]([O-])c1ccc(NCc2cccnc2)nc1Nc1ccc(N2CCOCC2)c(F)c1 [Compound 197, 2-[(3-fluoro-4-morpholino)phenylamino]-6-[(3-pyridyl)methylamino]-3-nitropyridine]
- Osteoclastogenesis inhibition (%) 1 μM [3]: 81%
- Cell viability (%) Calvarial cell [4]: 95%

Structure (SMILES): O=[N+]([O-])c1ccc(NCc2ccncc2)nc1Nc1ccc(N2CCOCC2)c(F)c1 [Compound 198, 2-[(3-fluoro-4-morpholino)phenylamino]-6-[(4-pyridyl)methylamino]-3-nitropyridine]
- Osteoclastogenesis inhibition (%) 1 μM [3]: 84%
- Cell viability (%) Calvarial cell [4]: 96%

Structure (SMILES): NC1CCN(c2ccc([N+](=O)[O-])c(Nc3ccc(N4CCOCC4)c(F)c3)n2)CC1 [Compound 202, 2-[(3-fluoro-4-morpholino)phenylamino]-6-(4-aminopiperidino)-3-nitropyridine]
- Osteoclastogenesis inhibition (%) 1 μM [3]: 90%
- Cell viability (%) Calvarial cell [4]: 96%

Structure (SMILES): O=[N+]([O-])c1ccc(NCc2cccnc2)nc1Nc1ccc(N2CCSCC2)c(F)c1 [Compound 209, 2-[(3-fluoro-4-thiomorpholino)phenylamino]-6-[(3-pyridyl)methylamino]-3-nitropyridine]
- Osteoclastogenesis inhibition (%) 1 μM [3]: 85%
- Cell viability (%) Calvarial cell [4]: 99%

Structure (SMILES): O=[N+]([O-])c1ccc(NCc2ccncc2)nc1Nc1ccc(N2CCSCC2)c(F)c1 [Compound 210, 2-[(3-fluoro-4-thiomorpholino)phenylamino]-6-[(4-pyridyl)methylamino]-3-nitropyridine]
- Osteoclastogenesis inhibition (%) 1 μM [3]: 70%
- Cell viability (%) Calvarial cell [4]: 105%
